The test system of the assay is A549 cells. In words: cells. Conditions: Homo sapiens, A549, 72 h, read-out: IC50, cytotoxicity for A549.

By IC50 is commonly meant the point on the concentration scale where inhibition reaches its midpoint. Regarding `CC[C@@]1(O)C(=O)OCc2c1cc1n(c2=O)Cc2cc3ccccc3nc2-1` [CPT, Camptothecin], the 50% inhibitory concentration (IC50) came to 260 nM.

For the origin of these results see PMC11278161 (Marine Drugs, 2024).
